compound: COc1cc2nc(N3CCCN(C)CC3)nc(NC3CCN(Cc4ccccc4)CC3)c2cc1OC + CC(=O)Nc1cccc(-n2c(=O)n(C3CC3)c(=O)c3c(Nc4ccc(I)cc4F)n(C)c(=O)c(C)c32)c1 [Trametinib] (partner 0.02 µM); assay: relative viability (nuclei count vs DMSO), 5 days (fraction); higher = more cells survive; details: first compound 0.2 µM
How it was run: (§1)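 Lung cancer cell lines, seeded in 1536-well plates, were treated the following day by pin tool with a single drug or with five library-drug doses (not always all listed) in √10 steps on top of a fixed anchor-drug dose. Cells were fixed and nuclei stained in one step after 5 days, and nuclei were counted. Relative viability is the nuclei count for treated wells divided by that for vehicle wells, reported as medians of duplicate plates.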

Row | Cell Line | relative viability
1 | NCI-H2342 | 0.916
2 | NCI-H727 | 0.425
3 | NCI-H1650 | 0.576
4 | NCI-H1993 | 0.497
5 | SW 1573 | 0.446
6 | NCI-H838 | 0.536
7 | LCLC-103H | 0.682
8 | NCI-H520 | 0.744
9 | NCI-H2126 | 0.532
10 | EMC-BAC-2 | 0.873
11 | NCI-H2085 | 0.504
12 | HCC-366 | 0.335
13 | NCI-H1666 | 0.821
14 | NCI-H596 | 0.748
15 | LK-2 | 0.813
16 | NCI-H2087 | 0.244
17 | SK-MES-1 | 0.597
18 | H3255 | 0.593
19 | COR-L23 | 0.635

Row | Cell Line | relative viability
20 | COR-L 105 | 0.429
21 | LOU-NH91 | 0.801
22 | ChaGo-K-1 | 0.919
23 | NCI-H2170 | 0.989
24 | NCI-H2405 | 0.652
25 | HOP-62 | 0.396
26 | HCC-44 | 1.04
27 | NCI-H522 | 0.754
28 | LU99A | 0.531
29 | BEN | 1.06
30 | HARA | 0.686
31 | SW 900 | 0.661
32 | NCI-H1395 | 1.01
33 | CAL-12T | 0.324
34 | NCI-H2228 | 0.561
35 | NCI-H1793 | 0.374
36 | NCI-H1944 | 0.437
37 | NCI-H358 | 0.132

same assay, conditions: first compound 0.6325 µM

Row | Cell Line | relative viability
38 | NCI-H2342 | 0.963
39 | NCI-H727 | 0.368
40 | NCI-H1650 | 0.601
41 | NCI-H1993 | 0.485
42 | SW 1573 | 0.518
43 | NCI-H838 | 0.556
44 | LCLC-103H | 0.745
45 | NCI-H520 | 0.637
46 | NCI-H2126 | 0.572
47 | EMC-BAC-2 | 0.857
48 | NCI-H2085 | 0.504
49 | HCC-366 | 0.401
50 | NCI-H1666 | 0.781
51 | NCI-H596 | 0.765
52 | LK-2 | 0.928
53 | NCI-H2087 | 0.215
54 | NCI-H1648 | 0.511
55 | SK-MES-1 | 0.56
56 | H3255 | 0.607

Row | Cell Line | relative viability
57 | COR-L23 | 0.466
58 | COR-L 105 | 0.515
59 | LOU-NH91 | 0.778
60 | ChaGo-K-1 | 0.882
61 | NCI-H2170 | 0.856
62 | NCI-H2405 | 0.604
63 | HOP-62 | 0.434
64 | HCC-44 | 1.13
65 | NCI-H522 | 0.728
66 | LU99A | 0.47
67 | BEN | 1.04
68 | HARA | 0.916
69 | SW 900 | 0.753
70 | NCI-H1395 | 1.03
71 | CAL-12T | 0.329
72 | NCI-H2228 | 0.565
73 | NCI-H1793 | 0.39
74 | NCI-H1944 | 0.423
75 | NCI-H358 | 0.16

same assay, conditions: first compound 2 µM

Row | Cell Line | relative viability
76 | NCI-H2342 | 0.818
77 | NCI-H727 | 0.373
78 | NCI-H1650 | 0.499
79 | NCI-H1993 | 0.414
80 | SW 1573 | 0.572
81 | NCI-H838 | 0.532
82 | LCLC-103H | 0.743
83 | NCI-H520 | 0.674
84 | NCI-H2126 | 0.513
85 | EMC-BAC-2 | 0.899
86 | NCI-H2085 | 0.612
87 | HCC-366 | 0.358
88 | NCI-H1666 | 0.774
89 | NCI-H596 | 0.822
90 | LK-2 | 0.633
91 | NCI-H2087 | 0.144
92 | SK-MES-1 | 0.599
93 | H3255 | 0.554
94 | COR-L23 | 0.748

Row | Cell Line | relative viability
95 | COR-L 105 | 0.403
96 | LOU-NH91 | 0.781
97 | ChaGo-K-1 | 0.932
98 | NCI-H2170 | 0.959
99 | NCI-H2405 | 0.676
100 | HOP-62 | 0.459
101 | HCC-44 | 1.1
102 | NCI-H522 | 0.749
103 | LU99A | 0.541
104 | BEN | 1.02
105 | HARA | 0.522
106 | SW 900 | 0.584
107 | NCI-H1395 | 1.13
108 | CAL-12T | 0.302
109 | NCI-H2228 | 0.403
110 | NCI-H1793 | 0.412
111 | NCI-H1944 | 0.379
112 | NCI-H358 | 0.121

same assay, conditions: first compound 6.325 µM

Row | Cell Line | relative viability
113 | NCI-H2342 | 0.803
114 | NCI-H727 | 0.361
115 | NCI-H1650 | 0.511
116 | NCI-H1993 | 0.589
117 | SW 1573 | 0.368
118 | NCI-H838 | 0.391
119 | LCLC-103H | 0.671
120 | NCI-H520 | 0.176
121 | NCI-H2126 | 0.508
122 | EMC-BAC-2 | 0.732
123 | NCI-H2085 | 0.525
124 | HCC-366 | 0.239
125 | NCI-H1666 | 0.799
126 | NCI-H596 | 0.655
127 | LK-2 | 0.881
128 | NCI-H2087 | 0.206
129 | NCI-H1648 | 0.532
130 | SK-MES-1 | 0.471
131 | H3255 | 0.537

Row | Cell Line | relative viability
132 | COR-L23 | 0.638
133 | COR-L 105 | 0.439
134 | LOU-NH91 | 0.811
135 | ChaGo-K-1 | 0.887
136 | NCI-H2170 | 0.948
137 | NCI-H2405 | 0.591
138 | HOP-62 | 0.361
139 | HCC-44 | 1.08
140 | NCI-H522 | 0.817
141 | LU99A | 0.526
142 | BEN | 1.1
143 | HARA | 0.746
144 | SW 900 | 0.688
145 | NCI-H1395 | 0.806
146 | CAL-12T | 0.266
147 | NCI-H2228 | 0.395
148 | NCI-H1793 | 0.373
149 | NCI-H1944 | 0.414
150 | NCI-H358 | 0.126

compound: COc1cc2nc(N3CCCN(C)CC3)nc(NC3CCN(Cc4ccccc4)CC3)c2cc1OC + CC(C)C[C@H](NC(=O)[C@H](Cc1ccccc1)NC(=O)c1cnccn1)B(O)O [Bortezomib] (partner 0.002 µM); assay: as above; details: first compound 0.2 µM
How it was run: as §1

Row | Cell Line | relative viability
151 | NCI-H727 | 0.756
152 | NCI-H1650 | 0.228
153 | EBC-1 | 0.469
154 | NCI-H1703 | 0.37
155 | NCI-H1993 | 1.02
156 | SW 1573 | 1.16
